Columns and labels:
[1] = test system: PEDV; assay: Anti-PEDV activity assay, viral loads; format: cell-based; settings: for concentration that completely inhibited PEDV replication: Vero E6 cells, PEDV 0.01 MOI, 48 h post infection, qRT-PCR and TCID50
[2] = test system: PEDV; assay: Anti-PEDV activity assay, PEDV-induced cytopathic effect; format: cell-based; settings: Vero E6 cells, PEDV 0.01 MOI, until virus control showed complete CPE
[3] = test system: human cell lines and primary cells; settings: cited from earlier work
[4] = test system: Vero E6 cells; assay: Cytotoxicity assay; format: cell-based, African green monkey; settings: 72 h, CCK-8 assay
[5] = test system: PDCoV; settings: ref Brown et al. [2019]; cited from earlier work
[6] = Water solubility and lipophilicity; format: physicochemical
[7] = Pharmacokinetics study of RDV-N in ICR mice; format: in vivo
[8] = test system: feline infectious peritonitis virus (FIPV); settings: cats, subcutaneous, 5 mg/kg or 2 mg/kg; ref Murphy et al. [2018]; cited from earlier work
[9] = test system: PEDV spike protein; assay: Indirect immuno-fluorescence assay; format: cell-based, porcine epidemic diarrhea virus, variant strain SDSX16; settings: 0.2 μmol/L, 48 h, Vero E6 cells
[10] = test system: PEDV 3CL^pro; settings: PEDV 3CLpro; ref Ye et al. [2020]; cited from earlier work

| Molecule | concentration that completely inhibited PEDV replication [1] [µmol/L] | concentration at which PEDV-induced CPE was obviously blocked [2] [µmol/L] | CC50 [3] [µM] | maximal non-toxic concentration (MNTC) [4] [µmol/L] | EC50 [5] [µM] | lipophilicity [6] | water solubility [6] | fold more potent than NHC (EC50) ([1]; 72 h post infection, qRT-PCR) | half-life ([7]; male, ICR, mouse, plasma, iv, 25 mg/kg) [h] | half-life ([7]; male, ICR, mouse, plasma, po, 50 mg/kg) [h] | Tmax ([7]; male, ICR, mouse, plasma, po, 50 mg/kg, Tmax, mice) [h] | AUClast ([7]; mice, IV, 25 mg/kg) | AUClast ([7]; mice, PO, 50 mg/kg) [ng·h/mL] | Cmax ([7]; mice, PO, 50 mg/kg) [ng/mL] | cure rate [8] [%] | fluorescence intensity (viral protein expression) [9] | IC50 [10] [µM] |
| --- | --- | --- | --- | --- | --- | --- | --- | --- | --- | --- | --- | --- | --- | --- | --- | --- | --- |
| CCC(CC)COC(=O)[C@H](C)N[P@](=O)(OC[C@H]1O[C@@](C#N)(c2ccc3c(N)ncnn23)[C@H](O)[C@@H]1O)Oc1ccccc1 [RDV, remdesivir] | 7.8 | 0.5 | 1.7 to 15 | 125 | 0.02 | – | – | – | – | – | – | – | – | – | – | – | – |
| N#C[C@@]1(c2ccc3c(N)ncnn23)O[C@H](CO)[C@@H](O)[C@H]1O [RDV-N] | 2.0 | 0.2 | – | 125 | – | low lipophilicity | poor water solubility | 3 | 1.02 | 1.2 | ≤ 1 | 14,513 h × ng/mL | 4556 | 1826 | 100 | significantly decreased | – |
| GC376 | – | – | – | – | – | – | – | – | – | – | – | – | – | – | – | – | 1.11 |
